In patent US5773414A, “Endothelin antagonists” (Warner-Lambert Company, priority 1997, dated 1998):
Structures can show the parent of a compound that is named as a salt. Where two headings read alike, the source gives them in different places. Square brackets hold non-standard residues; d marks the D form. Peptide text beside a SMILES is read from it. dDip = N[C@@H](C(=O)O)C(c1ccccc1)c1ccccc1; d2Nal = N[C@H](Cc1ccc2ccccc2c1)C(=O)O; Orn = NCCC[C@H](N)C(=O)O

What was measured:
[1] = molecular target: T1, ETA (Oryctolagus cuniculus, UniProt A5A8K3); experiment: Endothelin Receptor Binding Assay-A (ETA), intact cell binding of [125I]-ET-1; set-up: species or system rabbit; settings: Table IIa; rabbit renal artery vascular smooth muscle cells; read-out: Binding Assay IC50 at Receptor Subtypes ETA
T1 construct: The cells used were rabbit renal artery vascular smooth muscle cells; endogenous in cells; host or cells: rabbit renal artery vascular smooth muscle cells
T1 sequence (A5A8K3 21-427): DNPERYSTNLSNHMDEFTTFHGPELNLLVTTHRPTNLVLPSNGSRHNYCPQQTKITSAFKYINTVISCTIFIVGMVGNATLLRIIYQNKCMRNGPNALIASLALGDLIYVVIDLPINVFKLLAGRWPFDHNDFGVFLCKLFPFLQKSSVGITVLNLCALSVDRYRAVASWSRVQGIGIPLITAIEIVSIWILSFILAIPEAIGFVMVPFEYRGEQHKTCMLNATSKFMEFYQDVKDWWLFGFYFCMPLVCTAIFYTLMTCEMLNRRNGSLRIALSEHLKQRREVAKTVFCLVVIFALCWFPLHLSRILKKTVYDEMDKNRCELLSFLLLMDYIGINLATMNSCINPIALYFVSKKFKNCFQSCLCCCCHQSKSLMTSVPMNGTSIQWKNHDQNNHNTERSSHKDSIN
Experimental: The cells used were rabbit renal artery vascular smooth muscle cells grown in a 48-well dish (1 cm^2) (confluent cells).
The growth media was Dulbeccos Modified Eagles/Ham's F12 which contained 10 fetal bovine serum and antibiotics (penicillin/streptomycin/fungizone).
Second, remove the assay buffers, place the dish on ice, and add 150 μL of cold assay buffer described above to each well. […] Next, place dish in a 37° C. water bath for about 2 hours and gently agitate the dish every 15 minutes. Discard the radioactive incubation mixture in the sink and wash wells 3 times with 1 mL of cold phosphate buffered saline. Last, add […] of 0.25M sodium hydroxide, agitate for 1 hour on rotator, and then transfer the sodium hydroxide extract to gamma counting tubes and count the radioactivity.

[2] = molecular target: T2, ETB (Rattus norvegicus, UniProt P21451); experiment: Endothelin Receptor Binding Assay-B (ETB), [125I]-ET-1 binding in rat cerebellar membranes; settings: Table IIa; rat cerebellar membranes; read-out: Binding Assay IC50 at Receptor Subtypes ETB
T2 construct: thaw one aliquot of frozen rat cerebellar membranes; from tissue; host or cells: rat cerebellar membranes
T2 sequence (P21451 27-442): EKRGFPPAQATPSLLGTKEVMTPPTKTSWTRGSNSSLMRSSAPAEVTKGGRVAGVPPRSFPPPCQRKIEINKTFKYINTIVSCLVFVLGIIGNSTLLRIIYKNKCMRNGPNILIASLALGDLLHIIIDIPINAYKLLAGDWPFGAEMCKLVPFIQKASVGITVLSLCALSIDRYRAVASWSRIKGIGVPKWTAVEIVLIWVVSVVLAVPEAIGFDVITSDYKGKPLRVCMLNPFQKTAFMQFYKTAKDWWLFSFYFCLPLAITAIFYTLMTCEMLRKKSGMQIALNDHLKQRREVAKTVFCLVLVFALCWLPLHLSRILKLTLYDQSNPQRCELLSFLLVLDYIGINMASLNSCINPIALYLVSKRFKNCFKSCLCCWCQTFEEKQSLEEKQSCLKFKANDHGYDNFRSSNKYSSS
Experimental: The tissue is made up of 20 mM tris(hydroxymethyl)aminomethane hydrochloride (Trizma) buffer, 2 mM ethylenediaminetetraacetate, 100 μM phenylmethylsulfonyl fluoride.
First, thaw one aliquot of frozen rat cerebellar membranes (2 mg protein in 0.5 mL). Next, add 0.5 mL membrane aliquot to 4.5 mL cold tissue buffer, polytron at 7,500 revolutions per minute for 10 seconds. Finally, dilute tissue suspension 1/100 (0.1 mL suspension+9.9 mL tissue buffer), polytron again, and place ice.
Mix in 150 μL of tissue to each tube, vortex briefly, then tap to force all liquids to bottom (total assay volume=250 μL). Then place the tubes in a 37° C. water bath for 2 hours.
Add 2.5 mL cold water buffer (50 mM Trizma buffer) to each tube, filter, and then wash tube with additional 2.5 mL wash buffer and add to filter. Finally, wash filters with an additional 2.5 mL of cold wash buffer.
Count filters for radioactivity in gamma counter.

[3] = tested on: pulmonary artery rings contracted by SRTX-6c; experiment: In vitro isolated vessel study, pulmonary artery rings, agonist SRTX-6c; set-up: species or system rabbit; settings: Table III, endothelium-denuded rings
Experimental: In Vitro (Isolated Vessel) Studies
Male New Zealand rabbits were killed by cervical dislocation and exsanguination. Femoral and pulmonary arteries were isolated, cleaned of connective tissue, and cut into 4 mm rings. The endothelium was denuded by placing the rings over hypodermic tubing (32 gauge for femoral rings and 28 gauge for pulmonary rings, Small Parts Inc., Miami, Fla.) and gently rolling them. Denuded rings were mounted in 20 mL organ baths containing Krebs-bicarbonate buffer (composition in mM: NaCl, 118.2; NaHCO3, 24.8; KCl, 4.6; MgSO4, 7.H2 O, 1.2; KH2 PO4, 1.2; CaCl2. 2H2 O; Ca--Na2 EDTA, 0.026; Dextrose, 10.0), that was maintained at 37° C., and gassed continuously with 5% CO2 in oxygen (pH 7.4). Resting tension was adjusted to 3.0 g for femoral and 4.0 g pulmonary arteries; the rings were left for 90 minutes to equilibrate. Tension was monitored with force displacement transducers (Grass FT03, Quincy, Mass.) and recorded on a polygraph (Gould 2108, Cleveland, Ohio) recorder.
Vascular rings were tested for a lack of functional endothelium, i.e., lack of an endothelium-dependent relaxation response to carbachol (1.0 μM) in norepinephrine (0.03 μM) contracted rings. […]
For the in vitro experiments compounds were dissolved in 0.1% acetic acid in distilled water. […] The antagonist activity of various compounds are expressed as PA2 values in Table III.

[4] = molecular target: T3, endothelin receptor (rat heart ventricle) (Rattus norvegicus, UniProt P26684); experiment: Rat Heart Ventricle Binding Assay ([125I]-ET-1); settings: Table II
T3 sequence (P26684 21-426): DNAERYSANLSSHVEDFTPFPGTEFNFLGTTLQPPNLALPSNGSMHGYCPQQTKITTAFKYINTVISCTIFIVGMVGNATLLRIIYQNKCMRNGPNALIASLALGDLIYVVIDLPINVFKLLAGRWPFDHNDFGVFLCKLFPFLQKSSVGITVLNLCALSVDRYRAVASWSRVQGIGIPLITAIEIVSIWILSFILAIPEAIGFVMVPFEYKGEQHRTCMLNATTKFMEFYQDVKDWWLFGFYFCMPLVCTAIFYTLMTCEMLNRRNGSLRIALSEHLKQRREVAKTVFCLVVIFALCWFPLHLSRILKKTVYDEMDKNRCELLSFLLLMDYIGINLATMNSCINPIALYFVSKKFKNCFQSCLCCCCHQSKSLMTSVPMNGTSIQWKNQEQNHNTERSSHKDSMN
Experimental: Rat Heart Ventricle Binding Assay
IC50 values are calculated by weighing nonlinear regression curve-fitting to the mass-action (Langmuir) equation.

[5] = molecular target: T4, endothelin-stimulated inositol phosphate accumulation in Rat-1 cells (Rattus norvegicus, UniProt P26684); experiment: Inositol Phosphate Accumulation; assay type: cell-based
T4 sequence (P26684 21-426): T3 sequence (P26684 21-426)
Experimental: Inositol Phosphate Accumulation
The functional activity of compounds of Formula I is determined in Rat-1 cells by measuring intra-cellular levels of second messengers. […] Antagonist activity is assessed as the ability of added compounds to reduce endothelin-stimulated inositol phosphate accumulation.

[6] = tested on: ET-1 induced bronchoconstriction and tracheal smooth muscle contraction; settings: allergic sheep; cited from earlier work
[7] = tested on: endotoxic shock; settings: mouse model of endotoxic shock; cited from earlier work

Row | SMILES | IC50 [1] [nM] | IC50 [2] [nM] | inhibition at 10 µM [4] [%] | also measured
1 | CC[C@H](C)[C@H](NC(=O)[C@H](CC(=O)O)NC(=O)[C@H](CCC(=O)O)NC(=O)[C@H](NC(C)=O)C(c1ccccc1)c1ccccc1)C(=O)N[C@H](C(=O)N[C@@H](Cc1c[nH]c2ccccc12)C(=O)O)[C@@H](C)CC [Example 20, Ac--D--Dip--Glu--Asp--Ile--Ile--Trp] (Ac-[dDip]EDIIW-OH) | 25 | 52 |  | pA2, rabbit pulmonary artery [3]: 6.85
2 | CC[C@H](C)[C@H](NC(=O)[C@H](CC(=O)O)NC(=O)[C@H](CC(C)C)NC(=O)[C@H](NC(C)=O)C(c1ccccc1)c1ccccc1)C(=O)N[C@@H](CCCCN)C(=O)N[C@@H](Cc1c[nH]c2ccccc12)C(=O)O [Example 17, Ac--D--Dip--Leu--Asp--Ile--Lys--Trp] (Ac-[dDip]LDIKW-OH) | > 10000 | 4200 | 24.6 | 
3 | CC[C@H](C)[C@H](NC(=O)[C@H](CC(=O)O)NC(=O)[C@H](CC(C)C)NC(=O)[C@H](N)Cc1ccc2ccccc2c1)C(=O)N[C@H](C(=O)N[C@@H](Cc1c[nH]c2ccccc12)C(=O)O)[C@@H](C)CC [Example 4, D-2-Nal--Leu--Asp--Ile--Ile--Trp] (H-[d2Nal]LDIIW-OH; N-terminus and C-terminus assumed) |  |  |  | inhibition at 50 µM ([5]; Table II, read-out: IP (Inositol Phosphate) Accumulation, Inhibition): 53%; inhibition at 50 µM ([5]; Table IIa, read-out: IP (Inositol Phosphate) Accumulation, % Inhibition): 53%
4 | CC[C@H](C)[C@H](NC(=O)[C@H](CC(=O)O)NC(=O)[C@H](CC(C)C)NC(=O)[C@H](NC(C)=O)C(c1ccccc1)c1ccccc1)C(=O)N[C@@H](CCC(=O)O)C(=O)N[C@@H](Cc1c[nH]c2ccccc12)C(=O)O [Example 18, Ac--D--Dip--Leu--Asp--Ile--Glu--Trp] (Ac-[dDip]LDIEW-OH) |  |  | 37 | 
5 | CC(C)C[C@@H]1NC(=O)[C@@H](C(C)C)NC(=O)[C@@H]2CCCN2C(=O)[C@@H](CC(=O)O)NC(=O)[C@@H](Cc2c[nH]c3ccccc23)NC1=O [BQ-123] (cyclo(L[dW][dD]P[dV])) |  |  |  | effect on ET-1 induced bronchoconstriction and tracheal smooth muscle contraction [6]: block ET-1 induced bronchoconstriction and tracheal smooth muscle contraction; survival rate [7]: significantly increased
6 | CC[C@H](C)[C@H](NC(=O)[C@H](CC(=O)O)NC(=O)[C@H](CC(C)C)NC(=O)[C@H](NC(C)=O)C(c1ccccc1)c1ccccc1)C(=O)N[C@H](C(=O)N[C@@H](Cc1c[nH]c2ccccc12)C(=O)O)[C@@H](C)CC [Disodium salt of Ac-D-Dip-Leu-Asp-Ile-Ile-Trp] (Ac-[dDip]LDIIW-OH) |  |  |  | pA2, rabbit pulmonary artery [3]: 6.26
7 | CC[C@H](C)[C@H](NC(=O)[C@H](CC(=O)O)NC(=O)[C@H](CCCN)NC(=O)[C@H](NC(C)=O)C(c1ccccc1)c1ccccc1)C(=O)N[C@H](C(=O)N[C@@H](Cc1c[nH]c2ccccc12)C(=O)O)[C@@H](C)CC [Example 21, Ac--D--Dip--Orn--Asp--Ile--Ile--Trp] (Ac-[dDip][Orn]DIIW-OH) | 15 | 220 |  | inhibition at 0.05 µM ([4]; @ 0.05 μM): 79%
8 | CC[C@H](C)[C@H](NC(=O)[C@H](CC(=O)O)NC(=O)[C@@H](Cc1ccccc1)NC(C)=O)C(=O)N[C@H](C(=O)N[C@@H](Cc1c[nH]c2ccccc12)C(=O)O)[C@@H](C)CC [Example 11, Ac--D--Phe--Asp--Ile--Ile--Trp] (Ac-[dF]DIIW-OH) | 9100 | 9300 |  | inhibition at 10 µM ([5]; Table IIa, @ 10 μM, read-out: IP (Inositol Phosphate) Accumulation, % Inhibition): 30%
9 | CC[C@H](C)[C@H](NC(=O)[C@H](CC(=O)O)NC(=O)[C@@H](CC(C)C)NC(=O)[C@H](NC(C)=O)C(c1ccccc1)c1ccccc1)C(=O)N[C@H](C(=O)N[C@@H](Cc1c[nH]c2ccccc12)C(=O)O)[C@@H](C)CC [Example 23, Ac--D--Dip--D--Leu--Asp--Ile--Ile--Trp] (Ac-[dDip][dL]DIIW-OH) |  |  | 41.3 | 
